Data taken from PMC12298351, “Novel 3,19-(N-Phenyl-3-(4-fluorophenyl)-pyrazole) Acetal of Andrographolide Promotes Cell Cycle Arrest and Apoptosis in MDA-MB-231 Breast Cancer Cells” (Pharmaceuticals, 2025).

How the values were obtained:
[1] = test system: SK-MEL-2; settings: SK-MEL-2, Melanoma
[2] = test system: T-47D; settings: for GI50 / Total growth inhibition (TGI): Breast; for CC50: read-out: 50% lethal concentration (LC50), Breast
[3] = test system: NCI-H23; settings: for Total growth inhibition (TGI) / CC50: NCI-H23, Non-Small Cell Lung; for GI50: NCI-H23, Non-Small-Cell Lung; for CC50: read-out: 50% lethal concentration (LC50)
[4] = test system: A498; settings: A498, Renal; for CC50: read-out: 50% lethal concentration (LC50)
[5] = test system: EKVX; settings: for Total growth inhibition (TGI): Non-Small Cell Lung; for GI50: Non-Small-Cell Lung; for CC50: read-out: 50% lethal concentration (LC50), Non-Small Cell Lung
[6] = test system: PC-3; settings: PC-3, Prostate; for CC50: read-out: 50% lethal concentration (LC50)
[7] = test system: NCI-H522; settings: for Total growth inhibition (TGI) / CC50: NCI-H522, Non-Small Cell Lung; for GI50: NCI-H522, Non-Small-Cell Lung; for CC50: read-out: 50% lethal concentration (LC50)
[8] = test system: U251; settings: U251, CNS
[9] = test system: OVCAR-8; settings: OVCAR-8, Ovarian; for CC50: read-out: 50% lethal concentration (LC50)
[10] = DPPH radical scavenging assay; settings: 25 µM test compound, 0.1 mM DPPH, acetonitrile, 30 min
In short: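 Compounds at 25 µM in acetonitrile mixed 1:2 with 0.1 mM DPPH in acetonitrile, kept 30 min in the dark at room temperature. Absorbance read at 517 nm; % scavenging = (Ac − As)/Ac × 100, Ac being DPPH blank. Ascorbic acid positive control.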

[11] = test system: M14; type: cell-based; settings: M14, Melanoma
[12] = test system: SF-539; settings: SF-539, CNS; for CC50: read-out: 50% lethal concentration (LC50)
[13] = test system: HCT-116; type: cell-based; settings: HCT-116, Colon
[14] = test system: HOP-62; settings: for Total growth inhibition (TGI) / CC50: HOP-62, Non-Small Cell Lung; for GI50: HOP-62, Non-Small-Cell Lung; for CC50: read-out: 50% lethal concentration (LC50)
[15] = test system: CCRF-CEM; settings: for GI50 / Total growth inhibition (TGI): Leukemia; for CC50: read-out: 50% lethal concentration (LC50), Leukemia
[16] = test system: MOLT-4; settings: MOLT-4, Leukemia; for CC50: read-out: 50% lethal concentration (LC50)
[17] = test system: SR; settings: for GI50 / Total growth inhibition (TGI): Leukemia; for CC50: read-out: 50% lethal concentration (LC50), Leukemia
[18] = test system: OVCAR-4; type: cell-based; settings: OVCAR-4, Ovarian; for CC50: read-out: 50% lethal concentration (LC50)
[19] = test system: RPMI-8226; settings: RPMI-8226, Leukemia; for CC50: read-out: 50% lethal concentration (LC50)
[20] = test system: SF-295; settings: SF-295, CNS; for CC50: read-out: 50% lethal concentration (LC50)
[21] = test system: TK-10; type: cell-based; settings: TK-10, Renal; for CC50: read-out: 50% lethal concentration (LC50)
[22] = test system: RXF 393; settings: RXF 393, Renal; for CC50: read-out: 50% lethal concentration (LC50)
[23] = test system: HL-60(TB); settings: for GI50 / Total growth inhibition (TGI): Leukemia; for CC50: read-out: 50% lethal concentration (LC50), Leukemia
[24] = test system: UACC-62; settings: UACC-62, Melanoma; for CC50: read-out: 50% lethal concentration (LC50)
[25] = test system: HCC-2998; settings: HCC-2998, Colon
[26] = test system: MDA-MB-435; settings: MDA-MB-435, Melanoma; for CC50: read-out: 50% lethal concentration (LC50)
[27] = test system: HCT-15; settings: HCT-15, Colon; for CC50: read-out: 50% lethal concentration (LC50)
[28] = test system: OVCAR-3; settings: OVCAR-3, Ovarian; for CC50: read-out: 50% lethal concentration (LC50)

## C=C1CCC2C3(C)COC(c4cn(-c5ccccc5)nc4-c4ccc(OC)cc4)OC3CCC2(C)C1CC=C1C(=O)OCC1O (centres unmarked) [1j]
[1]
  GI50: 1.57 µM
  Total growth inhibition (TGI): 3.08 µM
[2]
  GI50: 1.8 µM
  Total growth inhibition (TGI): 5.02 µM
  CC50: > 100 µM
[3]
  Total growth inhibition (TGI): 3.74 µM
  GI50: 1.71 µM
  CC50: 8.2 µM
[4]
  GI50: 2.63 µM
  Total growth inhibition (TGI): 11.3 µM
  CC50: 39.2 µM
[5]
  Total growth inhibition (TGI): 4.49 µM
  GI50: 1.96 µM
  CC50: > 100 µM
[6]
  GI50: 2.18 µM
  CC50: > 100 µM
[7]
  Total growth inhibition (TGI): 3.24 µM
  GI50: 1.73 µM
  CC50: 6.06 µM
[8]
  GI50: 1.66 µM
  Total growth inhibition (TGI): 3.1 µM
[9]
  GI50: 1.35 µM
  Total growth inhibition (TGI): 2.84 µM
  CC50: 5.97 µM
[10]
  % DPPH radical scavenging activity: 59.2%
[11]
  GI50: 1.72 µM
  Total growth inhibition (TGI): 3.54 µM
[12]
  GI50: 1.69 µM
  Total growth inhibition (TGI): 3.1 µM
  CC50: 5.7 µM
[13]
  GI50: 1.4 µM
  Total growth inhibition (TGI): 3.11 µM
[14]
  Total growth inhibition (TGI): 10.4 µM
  GI50: 2.65 µM
  CC50: 86.3 µM
[15]
  GI50: 0.64 µM
  Total growth inhibition (TGI): > 100 µM
  CC50: > 100 µM
[16]
  GI50: 1.71 µM
  Total growth inhibition (TGI): 7.57 µM
  CC50: > 100 µM
[17]
  GI50: 1.74 µM
  Total growth inhibition (TGI): 5.21 µM
  CC50: > 100 µM
[18]
  GI50: 1.72 µM
  Total growth inhibition (TGI): 4.23 µM
  CC50: > 100 µM
[19]
  GI50: 0.92 µM
  Total growth inhibition (TGI): > 100 µM
  CC50: > 100 µM
[20]
  GI50: 1.43 µM
  Total growth inhibition (TGI): 2.78 µM
  CC50: 5.39 µM
[21]
  GI50: 1.95 µM
  Total growth inhibition (TGI): 4.13 µM
  CC50: 8.77 µM
[22]
  GI50: 0.89 µM
  Total growth inhibition (TGI): 2.2 µM
  CC50: 4.98 µM
[23]
  GI50: 1.08 µM
  Total growth inhibition (TGI): 3.96 µM
  CC50: > 100 µM
[24]
  GI50: 1.91 µM
  Total growth inhibition (TGI): 4.26 µM
  CC50: 9.48 µM
[25]
  GI50: 1.7 µM
  Total growth inhibition (TGI): 3.19 µM
[26]
  GI50: 1.54 µM
  Total growth inhibition (TGI): 3.17 µM
  CC50: 6.51 µM
[27]
  GI50: 1.58 µM
  Total growth inhibition (TGI): 3.37 µM
  CC50: 7.2 µM
[28]
  GI50: 1.5 µM
  Total growth inhibition (TGI): 2.96 µM
  CC50: 5.84 µM

## C=C1CCC2C3(C)COC(c4cn(-c5ccccc5)nc4-c4cccc(Cl)c4)OC3CCC2(C)C1CC=C1C(=O)OCC1O (centres unmarked) [1d]
[1]
  GI50: 1.57 µM
  Total growth inhibition (TGI): 3.05 µM
[2]
  GI50: 1.63 µM
  Total growth inhibition (TGI): 4.76 µM
  CC50: > 100 µM
[3]
  Total growth inhibition (TGI): 3.82 µM
  GI50: 1.75 µM
  CC50: 8.31 µM
[4]
  GI50: 2.9 µM
  Total growth inhibition (TGI): 11.4 µM
  CC50: 38.1 µM
[5]
  Total growth inhibition (TGI): 4.95 µM
  GI50: 2.21 µM
  CC50: > 100 µM
[6]
  GI50: 2.07 µM
  CC50: > 100 µM
[7]
  Total growth inhibition (TGI): 2.95 µM
  GI50: 1.54 µM
  CC50: 5.65 µM
[8]
  GI50: 1.59 µM
  Total growth inhibition (TGI): 3 µM
[9]
  GI50: 1.53 µM
  Total growth inhibition (TGI): 3.44 µM
  CC50: > 100 µM
[10]
  % DPPH radical scavenging activity: 59.32%
[11]
  GI50: 1.69 µM
  Total growth inhibition (TGI): 3.88 µM
[12]
  GI50: 1.63 µM
  Total growth inhibition (TGI): 3.02 µM
  CC50: 5.57 µM
[13]
  GI50: 1.04 µM
  Total growth inhibition (TGI): 3.48 µM
[13]; read-out: 50% lethal concentration (LC50)
  CC50: 45.2 µM
[14]
  Total growth inhibition (TGI): 4.29 µM
  GI50: 1.78 µM
  CC50: > 100 µM
[15]
  GI50: 1.32 µM
  Total growth inhibition (TGI): 16.3 µM
  CC50: > 100 µM
[16]
  GI50: 1.14 µM
  Total growth inhibition (TGI): 3.82 µM
  CC50: > 100 µM
[17]
  GI50: 1.29 µM
  Total growth inhibition (TGI): 4.03 µM
  CC50: > 100 µM
[18]
  GI50: 2.09 µM
  CC50: > 100 µM
[19]
  GI50: 1.38 µM
  Total growth inhibition (TGI): > 100 µM
  CC50: > 100 µM
[20]
  GI50: 1.42 µM
  Total growth inhibition (TGI): 2.75 µM
  CC50: 5.36 µM
[21]
  GI50: 2.14 µM
  Total growth inhibition (TGI): 4.56 µM
  CC50: 9.71 µM
[22]
  GI50: 1.05 µM
  Total growth inhibition (TGI): 2.31 µM
  CC50: 5.07 µM
[23]
  GI50: 1.38 µM
  Total growth inhibition (TGI): 4.97 µM
  CC50: > 100 µM
[24]
  GI50: 1.71 µM
  Total growth inhibition (TGI): 3.42 µM
  CC50: 6.83 µM
[25]
  GI50: 1.81 µM
  Total growth inhibition (TGI): 3.37 µM
[26]
  GI50: 1.56 µM
  Total growth inhibition (TGI): 3.19 µM
  CC50: 6.49 µM
[27]
  GI50: 1.58 µM
  Total growth inhibition (TGI): 3.47 µM
  CC50: 7.64 µM
[28]
  GI50: 1.6 µM
  Total growth inhibition (TGI): 3.09 µM
  CC50: 5.95 µM
